Results: ChEMBL document CHEMBL1201862, “PubChem BioAssay data set” (2004)
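Results reflect a 48-hour exposure of cells in 96-well plates to compound at five concentrations. Abbreviation: GI50, concentration required for 50% inhibition of growth.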 The source made the active and inactive calls. Rule as the data show it: active = GI50 up to about 1.1 µM and inactive = higher.

How the values were obtained:
Assay in all cases: NCI anticancer screen, dose series, 48 h
SK-MEL-28 = system: SK-MEL-28
HOP-62 = system: HOP-62
BT-549 = system: BT-549
OVCAR-5 = system: OVCAR-5
NCI/ADR-RES = system: NCI/ADR-RES
SW-620 = system: SW-620
SNB-19 = system: SNB-19
K562 = system: K562
CCRF-CEM = system: CCRF-CEM
KM12 = system: KM12
SK-MEL-2 = system: SK-MEL-2
ACHN = system: ACHN
Hs-578T = system: Hs-578T
A549 = system: A549
MDA-MB-435 = system: MDA-MB-435
NCI-H522 = system: NCI-H522
HL-60 = system: HL-60
SNB-75 = system: SNB-75
SK-OV-3 = system: SK-OV-3

Row | Compound | GI50 (SK-MEL-28) | GI50 (HOP-62) | GI50 (BT-549) | GI50 (OVCAR-5) | GI50 (NCI/ADR-RES) | GI50 (SW-620) | GI50 (SNB-19) | GI50 (K562) | GI50 (CCRF-CEM) | GI50 (KM12) | GI50 (SK-MEL-2) | GI50 (ACHN) | GI50 (Hs-578T) | GI50 (A549) | GI50 (MDA-MB-435) | GI50 (NCI-H522) | GI50 (HL-60) | GI50 (SNB-75) | GI50 (SK-OV-3)
1 | Cc1cc(=O)oc2cc(OC(=O)N(C)C)c(Cl)cc12 | > 100 µM (inactive) | 25.1 µM (inactive) | > 100 µM (inactive) | > 100 µM (inactive) | > 100 µM (inactive) | > 100 µM (inactive) | 71.4 µM (inactive) | > 100 µM (inactive) | > 100 µM (inactive) | > 100 µM (inactive) | 82.6 µM (inactive) | > 100 µM (inactive) | > 100 µM (inactive) | > 100 µM (inactive) | 65 µM (inactive) | 57.7 µM (inactive) | 54 µM (inactive) | – | –
2 | CC(=O)n1nc(-c2ccc3ccccc3c2)nc1C | – | 39.5 µM (inactive) | 48.6 µM (inactive) | > 100 µM (inactive) | > 100 µM (inactive) | 32.8 µM (inactive) | – | 90.8 µM (inactive) | 83.8 µM (inactive) | 23.9 µM (inactive) | > 100 µM (inactive) | 73.1 µM (inactive) | 39.4 µM (inactive) | 81.1 µM (inactive) | 33.7 µM (inactive) | > 100 µM (inactive) | 46 µM (inactive) | 70.3 µM (inactive) | > 100 µM (inactive)
3 | COc1ccc(OC)c(-c2cn3c(n2)sc2ccccc23)c1 | – | > 100 µM (inactive) | > 100 µM (inactive) | > 100 µM (inactive) | > 100 µM (inactive) | > 100 µM (inactive) | > 100 µM (inactive) | > 100 µM (inactive) | > 100 µM (inactive) | > 100 µM (inactive) | > 100 µM (inactive) | > 100 µM (inactive) | 39.7 µM (inactive) | > 100 µM (inactive) | > 100 µM (inactive) | > 100 µM (inactive) | > 100 µM (inactive) | > 100 µM (inactive) | > 100 µM (inactive)
4 | CCN(CC)C(=S)SC(C(=O)Nc1nnc(-c2ccc(Cl)cc2)o1)c1ccccc1 (stereo unspecified) | 14 µM (inactive) | 14.7 µM (inactive) | 28.5 µM (inactive) | 6.41 µM (inactive) | 5.68 µM (inactive) | 5.41 µM (inactive) | 34.6 µM (inactive) | 12.8 µM (inactive) | 2.84 µM (inactive) | 17.9 µM (inactive) | 20.6 µM (inactive) | 6.64 µM (inactive) | 35.4 µM (inactive) | 17.9 µM (inactive) | 14.2 µM (inactive) | 4.62 µM (inactive) | 4.85 µM (inactive) | – | 13 µM (inactive)
5 | CC#CC(O)(C(=O)OC1CC2CCC(C1)N2C)C1CCCC1 (stereo unspecified) | > 100 µM (inactive) | > 100 µM (inactive) | > 100 µM (inactive) | > 100 µM (inactive) | > 100 µM (inactive) | > 100 µM (inactive) | > 100 µM (inactive) | > 100 µM (inactive) | > 100 µM (inactive) | > 100 µM (inactive) | > 100 µM (inactive) | > 100 µM (inactive) | > 100 µM (inactive) | > 100 µM (inactive) | > 100 µM (inactive) | – | > 100 µM (inactive) | > 100 µM (inactive) | > 100 µM (inactive)
6 | Cc1ccc(Sc2ccccc2C23OC(C)(C4C(=O)N(c5ccccc5)C(=O)C42)N(C)C3=O)cc1 (stereo unspecified) | > 100 µM (inactive) | – | > 100 µM (inactive) | > 100 µM (inactive) | > 100 µM (inactive) | > 100 µM (inactive) | > 100 µM (inactive) | > 100 µM (inactive) | > 100 µM (inactive) | > 100 µM (inactive) | > 100 µM (inactive) | > 100 µM (inactive) | 59.4 µM (inactive) | > 100 µM (inactive) | > 100 µM (inactive) | > 100 µM (inactive) | > 100 µM (inactive) | > 100 µM (inactive) | > 100 µM (inactive)
7 | COC(=O)C1(C(=O)OC)Cc2ccc(OC)cc2C2=C1C(=O)c1ccccc1C2=O | 17.1 µM (inactive) | 7.08 µM (inactive) | 19.1 µM (inactive) | 6.01 µM (inactive) | 2.69 µM (inactive) | 6.47 µM (inactive) | 16.9 µM (inactive) | 1.84 µM (inactive) | 2.15 µM (inactive) | 6.85 µM (inactive) | 5.7 µM (inactive) | 5.74 µM (inactive) | 8.93 µM (inactive) | 14.9 µM (inactive) | 1.97 µM (inactive) | 3.45 µM (inactive) | 2.24 µM (inactive) | 17.7 µM (inactive) | –
8 | COC1=CC(=O)c2c(cc(COP(=O)(OCC3OC(n4cc(F)c(=O)[nH]c4=O)CC3O)N(C)CCCCCl)n2C)C1=O (stereo unspecified) | – | 0.0413 µM (active) | 1.56 µM (inactive) | 7.45 µM (inactive) | 0.678 µM (active) | 0.141 µM (active) | 0.951 µM (active) | 1.98 µM (inactive) | < 0.01 µM (active) | 10 µM (inactive) | 17.7 µM (inactive) | < 0.01 µM (active) | 0.0877 µM (active) | < 0.01 µM (active) | 1.04 µM (active) | 0.495 µM (active) | 0.195 µM (active) | < 0.0124 µM (active) | –
